Experimental data: PMC5945515, “Measuring glucocorticoid receptor expression in vivo with PET” (Oncotarget, 2018)
Like-named read-outs stand apart in the source and are kept apart here.

Legend:
human GR = target: T1, human GR (Homo sapiens, UniProt P04150); test: Competition binding assay on cells, human GR
T1 construct: PC3 and DU145, two human prostate cancer models with endogenous GR expression; endogenous in cells; host or cells: DU145
T1 sequence (P04150 1-777): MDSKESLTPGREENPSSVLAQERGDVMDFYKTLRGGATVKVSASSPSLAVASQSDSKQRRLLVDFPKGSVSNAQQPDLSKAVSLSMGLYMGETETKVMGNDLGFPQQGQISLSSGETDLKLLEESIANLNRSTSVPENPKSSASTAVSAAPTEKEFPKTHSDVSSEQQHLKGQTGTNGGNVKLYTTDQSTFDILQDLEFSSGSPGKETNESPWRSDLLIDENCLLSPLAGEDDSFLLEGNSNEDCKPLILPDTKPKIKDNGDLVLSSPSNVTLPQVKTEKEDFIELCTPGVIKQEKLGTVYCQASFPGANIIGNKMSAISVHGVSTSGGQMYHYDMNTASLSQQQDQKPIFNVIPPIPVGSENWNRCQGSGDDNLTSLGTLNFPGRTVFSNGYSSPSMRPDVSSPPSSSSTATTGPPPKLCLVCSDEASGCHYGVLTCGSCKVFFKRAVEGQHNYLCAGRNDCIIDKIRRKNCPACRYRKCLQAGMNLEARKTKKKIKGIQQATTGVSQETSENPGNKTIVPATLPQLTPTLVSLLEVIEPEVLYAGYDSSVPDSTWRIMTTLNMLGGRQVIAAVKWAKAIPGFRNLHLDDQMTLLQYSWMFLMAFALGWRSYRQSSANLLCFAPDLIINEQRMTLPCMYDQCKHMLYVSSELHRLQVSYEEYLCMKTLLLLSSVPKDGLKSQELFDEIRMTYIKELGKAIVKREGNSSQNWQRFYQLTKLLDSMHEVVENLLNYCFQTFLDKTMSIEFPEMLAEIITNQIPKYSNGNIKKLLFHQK
Method: (§1) The KD for subfamily 3 group C nuclear hormone receptors was determined on cells by displacing ^3H-steroidal agonists for the respective receptor.
(§2) The cold ligands and ^3H-steroids were co-incubated on cells in PBS at room temperature for one hour. Following incubation, the cells were washed twice with ice cold PBS and the unbound activity was retained for analysis. The cells were lysed with 1 mL of 1 M NaOH and collected. Bound and unbound fractions were counted in a liquid scintillation counter and expressed as a percentage of the total activity added per equal relative number of cells. […] The specific binding component was plotted against the log of the competing ligand and curve fit using a non-linear regression algorithm with PRISM software.

huAR = huAR (Homo sapiens, UniProt P10275); test: Competition binding assay on cells, human AR
huAR, sequence (P10275 whole entry): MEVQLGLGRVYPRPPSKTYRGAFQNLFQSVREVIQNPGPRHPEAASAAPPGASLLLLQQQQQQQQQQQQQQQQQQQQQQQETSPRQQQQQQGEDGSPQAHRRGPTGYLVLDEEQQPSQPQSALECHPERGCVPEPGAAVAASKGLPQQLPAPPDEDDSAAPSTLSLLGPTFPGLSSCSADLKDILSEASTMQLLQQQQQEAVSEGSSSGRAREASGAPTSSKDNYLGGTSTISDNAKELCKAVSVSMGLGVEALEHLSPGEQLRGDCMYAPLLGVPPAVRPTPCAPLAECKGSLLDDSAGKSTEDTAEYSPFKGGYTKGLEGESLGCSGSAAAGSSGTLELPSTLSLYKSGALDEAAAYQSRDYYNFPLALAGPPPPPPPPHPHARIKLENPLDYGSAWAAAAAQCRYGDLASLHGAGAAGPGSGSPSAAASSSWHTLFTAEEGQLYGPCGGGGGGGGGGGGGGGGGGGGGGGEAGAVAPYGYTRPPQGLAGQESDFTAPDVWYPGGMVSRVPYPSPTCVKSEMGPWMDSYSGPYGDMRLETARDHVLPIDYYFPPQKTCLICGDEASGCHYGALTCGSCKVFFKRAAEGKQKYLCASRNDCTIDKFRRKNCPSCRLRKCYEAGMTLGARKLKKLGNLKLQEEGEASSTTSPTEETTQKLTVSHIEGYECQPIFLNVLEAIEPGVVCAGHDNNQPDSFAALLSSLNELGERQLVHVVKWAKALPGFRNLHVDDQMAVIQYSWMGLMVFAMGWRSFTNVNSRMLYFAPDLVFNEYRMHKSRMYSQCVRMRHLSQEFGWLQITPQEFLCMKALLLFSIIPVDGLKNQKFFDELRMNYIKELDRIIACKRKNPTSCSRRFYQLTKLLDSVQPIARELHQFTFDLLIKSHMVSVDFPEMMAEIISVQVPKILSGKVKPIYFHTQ
Method: The KD for subfamily 3 group C nuclear hormone receptors was determined on cells by displacing ^3H-steroidal agonists for the respective receptor. […].
The cold ligands and ^3H-steroids were co-incubated on cells in PBS at room temperature for one hour. Following incubation, the cells were washed twice with ice cold PBS and the unbound activity was retained for analysis. The cells were lysed with 1 mL of 1 M NaOH and collected. Bound and unbound fractions were counted in a liquid scintillation counter and expressed as a percentage of the total activity added per equal relative number of cells. […]. The specific binding component was plotted against the log of the competing ligand and curve fit using a non-linear regression algorithm with PRISM software.

huPR = target: T2, huPR (Homo sapiens, UniProt P06401); test: Competition binding assay on cells, human PR; conditions: MCF7 cells, displacing 3H-progesterone
T2 construct: DU145 (GR), LNCaP-AR (AR), MCF7 (PR, ER), GL261 (mouse GR), and 9L (rat GR); endogenous in cells; host or cells: MCF7
T2 sequence (P06401 1-933): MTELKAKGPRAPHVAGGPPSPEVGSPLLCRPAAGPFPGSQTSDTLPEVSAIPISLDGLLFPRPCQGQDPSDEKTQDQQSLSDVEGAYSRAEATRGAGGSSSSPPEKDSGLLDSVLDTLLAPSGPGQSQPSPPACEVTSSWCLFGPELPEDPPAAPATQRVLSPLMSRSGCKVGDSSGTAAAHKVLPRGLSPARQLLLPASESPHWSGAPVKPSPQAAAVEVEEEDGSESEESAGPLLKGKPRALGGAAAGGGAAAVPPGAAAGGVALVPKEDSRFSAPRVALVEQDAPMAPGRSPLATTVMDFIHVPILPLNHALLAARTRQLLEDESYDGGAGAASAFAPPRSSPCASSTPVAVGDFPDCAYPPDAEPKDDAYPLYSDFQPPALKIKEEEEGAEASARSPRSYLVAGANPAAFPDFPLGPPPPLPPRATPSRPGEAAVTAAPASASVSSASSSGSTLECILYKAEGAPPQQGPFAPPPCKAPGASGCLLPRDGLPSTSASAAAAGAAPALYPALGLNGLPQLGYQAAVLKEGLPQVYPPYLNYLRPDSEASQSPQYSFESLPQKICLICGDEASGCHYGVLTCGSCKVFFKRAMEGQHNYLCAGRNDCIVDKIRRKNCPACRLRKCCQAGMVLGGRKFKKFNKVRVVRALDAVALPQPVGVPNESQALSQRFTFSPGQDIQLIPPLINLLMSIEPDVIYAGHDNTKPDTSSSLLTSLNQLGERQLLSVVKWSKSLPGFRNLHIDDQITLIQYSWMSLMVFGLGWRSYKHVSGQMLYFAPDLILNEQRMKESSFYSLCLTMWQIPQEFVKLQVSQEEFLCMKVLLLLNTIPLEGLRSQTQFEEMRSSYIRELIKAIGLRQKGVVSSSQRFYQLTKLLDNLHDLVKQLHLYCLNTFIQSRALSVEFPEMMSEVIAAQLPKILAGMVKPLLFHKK
Method: as §1, §2

[1] = DU145 cells, displacing 3H-dexamethasone, read-out: KD huGR

C[C@]12C=CC(=O)C=C1CCC1C2[C@@H](O)C[C@@]2(C)C1CC[C@]2(O)C(=O)COCCCF (stereo partly shown) [GR01]
Kd (human GR; [1]): 3.86 nM | Kd (human GR; Supplementary Table 1, read-out: KD for human GR): 3.8 nM | Kd (huAR): 1460 nM | Kd (huPR): 1060 nM

C[C@]12C=CC(=O)C=C1CCC1C2[C@@H](O)C[C@@]2(C)C1CC[C@]2(O)C(=O)CNC(=O)c1ccc(F)cc1 (stereo partly shown) [GR02]
Kd (human GR; [1]): 15.9 nM | Kd (huAR): 1260 nM | Kd (huPR): 242 nM
